Data taken from patent US10844081B2, “Protected organoboronic acids with tunable reactivity, and methods of use thereof” (The Board of Trustees of the University of Illinois, priority 2015, dated 2020).

How the values were obtained:
[1] = Solubility of boronates in room temperature THF (NMR vs internal standard); format: physicochemical
Experimental: To determine the solubility of each boronate given in the following table, a concentrated solution was prepared by repeated addition to a small amount (˜200 μL) of room temperature THF in a 7-mL vial until solid no longer dissolved upon stirring. The vials were then allowed to stir at room temperature overnight. […] 100 μL of the mixture was then filtered and had solvent removed. The residue was then taken up in 500 μL DMSO-d6 containing 1,4-dimethoxybenzene (˜0.01 M) as an internal standard and transferred to an NMR tube. The concentrations of the solutions were then determined by integration relative to internal standard. In each case, the measurements are an average of two experiments.

[2] = Hydrolysis of MIDA boronate derivatives under slow release conditions (K3PO4, THF-d8/D2O, 60° C., 1H NMR); format: physicochemical; settings: for boronate remaining: at 6 hours; for krel, relative rate constant for hydrolysis with respect to MIDA (krel=1): 5:1 THF-d8:D2O, 7.5 eq. K3PO4, 60° C.; for reduction in the rate of hydrolysis: relative to MIDA boronate
Experimental: Compounds 1-6 (FIG. 4A) were prepared and then characterized in terms of their rates of hydrolysis under defined conditions relative to MIDA compound 4. Reaction conditions were: 5:1 THF-d8:D2O, 0.07 M in boronate, 7.5 eq. K3PO4, 60° C. Reactions were stirred for 0.5 to 2.0 h before being cooled and diluted with DMSO-d6 containing 1,4-dimethoxybenzene as an internal standard. ^1H NMR was taken immediately to determine % boronate remaining. For compounds 1, 2, and 3, n=2 and the average between the two runs is represented in the figure.
To each of twelve 1 mL conical vials equipped with stirring vanes was added 100 μL (0.08 M, 0.008 mmol) of a THF-d8 solution of the indicated boronate, followed by 20 μL (3.0 M, 0.06 mmol, 7.5 eq.) of a D2O solution of K3PO4. Each vial was then capped, shaken briefly to mix, and then stirred in a 60° C. heat block at 800 RPM. At the indicated times, two vials were removed from the heat block, cooled briefly under a stream of air, and then had 680 μL DMSO-d6 containing 1,4-dimethoxybenzene (˜0.008 M) as an internal standard added. The vials were then again briefly capped, shaken to mix, and the solutions were then immediately transferred to NMR tubes and spectra were taken (16 scans, d1=10 s). Time points were taken at 0, 0.5, 1, 1.5, 2.0, 4.0, and 6.0 hours. The solutions for the 0 time points were made directly in the NMR tubes, shaken, and then had spectra obtained. The percentage boronate remaining was determined by average the integration of the aryl protons (which fully resolved from the corresponding aryl protons on the parent boronic acid) across the two runs, except in the case of octyl TIDA boronate, for which the terminal methyl group of the octyl chain was used. Relative rate constants were obtained by assuming pseudo-first order kinetics and plotting the natural log of percentage boronate remaining vs time (ie. ln([boronate]/[boronate]o) vs t) (FIG. 13).
Each time point represents the average of n=2 experiments, except in the case of the N-Cy and N-iPr MIDA, for which n=1.

[3] = slow release hydrolysis conditions

In the case of `Cc1ccc([B-]23OC(=O)C(C)(C)[N+]2(C)C(C)(C)C(=O)O3)cc1` (stereo not shown) [p-tolylTIDA boronate, p-Tolyl TIDA Boronate], the “solubility in THF (in words)” value [1] is reported as “lack of solubility”.

In the case of p-Tolyl DibutylMIDA boronate [R=nBu], the boronate remaining [2, 3] is reported as “about 25%”.

For p-Tolyl DimethylMIDA Boronate, the “krel, relative rate constant for hydrolysis with respect to MIDA (krel=1)” value (shortened to “krel, relative rate constant”) [2] was 0.08, the boronate remaining [2, 3] was roughly 80% and the “rate of hydrolysis with added phase transfer catalyst (in words)” value ([2]; free dibutyl ligand or tetrabutylammonium bromide added) was “hydrolyzed faster than the lone boronate”. For the same molecule, the “reduction in the rate of hydrolysis” value [2] was 12.5 fold.

In the case of p-Tolyl SchMIDA Boronate, the “krel, relative rate constant” value [2] is reported as 0.092 and the “reduction in the rate of hydrolysis” value [2] is reported as 10.9 fold.

In the case of `CN1CC(=O)OB(c2ccc(C=O)o2)OC(=O)C1` [5-Formyl-2-furyl MIDA boronate, reference compound], the “solubility in THF” value [1] is reported as “trace”.

For p-Tolyl DiethylMIDA Boronate, the “krel, relative rate constant” value [2] was 0.12.

With 5-Formyl-2-furanyl TIDA Boronate the “solubility in THF” value [1] was 212 mM.

In the case of “Octyl TIDA Boronate [octylTIDA boronate]”, the “hydrolysis after 6 hours (in words)” value ([2]; after 6 hours, slow release hydrolysis conditions) is reported as “no measurable hydrolysis” and the “solubility in THF (in words)” value [1] is reported as “completely soluble”.
